Assay results taken from patent US20030175961A1, “Immortal micorvascular endothelial cells and uses thereof” (priority 2002, published 2003).
“Also recorded” adds a separate entry of the source.

Columns and labels:
MMP activities = test: Fluorescent substrate assay (FSA) of MMP activity in HDMEC conditioned media; format: biochemical, human; conditions: concentrated conditioned media from HDMEC cultures +/- PMA; Knight substrate
Description: Replicate hTERT(+)HDMECs (PD30, 60, 90) and primary controls (PD5, PD25) are seeded at equal densities, grown to confluence and switched to EBM media (Clonetics, San Diego, Calif.) containing growth factors, but no serum, for 72 hrs. Media is collected and total protein measured (Pierce, Rockford, Ill.). […] In addition, conditioned media are analyzed by a fluorescent substrate assay (FSA).
The FSA is an assay system for MMP activities based on recently-developed fluorogenic substrates that utilize 7-methoxycoumarin (MOC)-labeled MMP-specific small peptides (“Knight” substrate; Knight CG. Fluorimetric Assays of Proteolytic Enzymes. Met Enzymol 1995, 248:18-34). Release of MOC from the 2,4-dinitrophenyl-quenched peptide by active MMPs results in proportional increases in fluorescence with time. Activities of recombinant MMP-2 and MMP-9 using the Knight substrate were readily detectable and yielded linear initial reaction rates over 10 minutes. Calculated initial rates of hydrolysis of the Knight substrate (4 uM) by MMP-2 (1.2 nM), MMP-9 (1.2 nM), and MMP-2 (0.6 uM) plus MMP-9 (0.6 uM) were 571.1 units/min, 208.2 units/min, and 242 units/min, respectively. […]

hTERT(+) HDMEC (TERT-1) = test: Cell surface marker expression after TNF stimulation, TERT-1; format: cell-based, human; conditions: TNFá stimulation for 16 hr
Description: (§1) The hTERT(+) HDMEC (TERT-1) line expressed uniformly high PCAM but relatively low levels of ICAM-1 (30%), VCAM-1 (1.3%) and CD34 (19.5%) at baseline. […] The latter result was consistent with experiments performed in support of the present invention that studied the same characteristics of primary HDMEC CD34 expression.
(§2) The antibodies used for flow Cytometry were anti-PECAM (Becton Dickinson), ICAM (Pharmingen), and Apo2.7 (Immunotech). […] For apo 2.7 assay, the cells were treated with TNFá+actinomycin D (AMD), LPS+cycloheximide (CHX), or UV light 16 hours prior to the experiments. One group of cells were serum starved for 40 hours. The cells are incubated with either PE conjugated primary antibody or un-conjugated primary antibody+PE conjugated secondary antibody at 37° C. The data was collected and analyzed with CellQuest (Becton Dickinson) or Coulter EPICS cell sorter.

primary HDMEC (control) = test: Cell surface marker expression after TNF stimulation, primary HDMEC; format: cell-based, human; conditions: TNFá stimulation for 16 hr
Description: as §1, §2

[1] = test system: primary normal human keratinocyte (NHK) cultures; test: Fluorescent substrate assay (FSA) of net MMP activity in keratinocyte conditioned media; format: cell-based; conditions: conditioned media of PMA-treated NHK, only after APMA activation
Source text: The FSA is an assay system for MMP activities based on recently-developed fluorogenic substrates that utilize 7-methoxycoumarin (MOC)-labeled MMP-specific small peptides (“Knight” substrate; Knight CG. Fluorimetric Assays of Proteolytic Enzymes. Met Enzymol 1995, 248:18-34). Release of MOC from the 2,4-dinitrophenyl-quenched peptide by active MMPs results in proportional increases in fluorescence with time. Activities of recombinant MMP-2 and MMP-9 using the Knight substrate were readily detectable and yielded linear initial reaction rates over 10 minutes. Calculated initial rates of hydrolysis of the Knight substrate (4 uM) by MMP-2 (1.2 nM), MMP-9 (1.2 nM), and MMP-2 (0.6 uM) plus MMP-9 (0.6 uM) were 571.1 units/min, 208.2 units/min, and 242 units/min, respectively.
Reverse zymography confirmed the presence of TIMPs.

[2] = test system: human microvessel formation by GNMEC1; test: In vivo human microvascular remodeling assay, GNMEC1 in Matrigel implants in SCID mice; parameters: species or system human cells in SCID mice; conditions: agents mixed with GNMEC1 in Matrigel before implantation in SCID mice; FIG. 24-27; preliminary studies
Source text: (§3) SCID mice were implanted with Matrigel mixtures containing either b-FGF, primary HDMEC (PD1O) or hTERT(+)HDMEC via subcutaneous injection on ventral thoracic surfaces. Implants were harvested at 2 weeks, sectioned and stained with H&E and anti-human basement membrane Type 4 collagen. […] The presence of red blood cells within these human vessels indicates host vasculature has anastamosed with the human vessels creating murine-human chimeric microvasculature.
All agents were incorporated into Matrigel by mixing cells and agents together before implantation. The effect of continuous exposure at different concentrations was not performed but would be likely to greatly accentuate the results shown in these preliminary studies.

[3] = test system: GNMEC1 (eGFP-labeled hTERT(+)HDMEC); test: In vitro angiogenic web formation on Matrigel; format: cell-based, human; conditions: GNMEC1 pretreated with COX antagonist, then plated on Matrigel; FIG. 17
Description: Tubule formation on Matrigel. Matrigel (Collaborative Biomedical Products) was placed on ice and allowed to thaw overnight in a darkened cold room or refrigerator. Three hundred fifty microliters of the Matrigel was layered onto a pre-chilled well of a 6-well plate and then placed in an incubator at 37° C. for one half hour for the Matrigel to solidify. About 350,000 cells in M199/15% FBS/10 U/ml heparin/16 ig/ml ECGF were then seeded onto the matrix and allowed to incubate at 37° C., 5% CO2 environment. […] To show the utility of this in vitro system, we pretreated GNMEC1 with two different cyclo-oxygenase (COX) antagonists which are known to block angiogenesis (Jones et al. 1999 Nature Medicine 5:12;1418-23) and then plated the cells on Matrigel. […] The “tubulogenic process” can be followed and quantified utilizing cell lines such as GNMEC1 and digitally-converted fluorescence microscopic images of replicate cultures. Commercially available programs in current use with other cellular applications which maybe used to perform this process include MetaMorph® (Universal Imaging Corporation®, West Chester, Pa.) and the high-throughput imaging systems of Cellomics, Inc. (Pittsburgh, Pa.).

[4] = test system: host murine microvasculature; test: Host vessel invasion of Matrigel implants in SCID mice; format: in vivo; conditions: FGF-2 alone in Matrigel, no human EC
Source text: as §3
This procedure is based on a modification of the mouse angiogenesis model previously described^41. Two-three week old male or female SCID mice (Taconic, Germantown, N.Y.) were used as hosts for all implants. […] Passaniti, A. et al. A simple, quantitative method for assessing angiogenesis and antiangiogenic agents using reconstituted basement membrane, heparin, and fibroblast growth factor. […]
(§4) Matrigel implants were removed at 1, 2, 4 and 6 wk following xenografting, fixed in 10% buffered formalin overnight, paraffin-embedded and sectioned. […] For micromorphometry, 5 separate 20×fields were randomly selected per tissue section and the number of annular structures were counted and averaged. […] Passaniti, A. et al. A simple, quantitative method for assessing angiogenesis and antiangiogenic agents using reconstituted basement membrane, heparin, and fibroblast growth factor. […]

[5] = test system: HDMEC-GT derived microvessels; test: SCID mice xenografting of HDMEC-GT in Matrigel, human vessel quantification; format: in vivo, human cells in SCID mice; conditions: for human vessel density (human type IV collagen micromorphometry): two weeks after implantation, VEGF 2 μg/ml or FGF-2 150 ng/ml mixed with HDMEC-GT and Matrigel, only FGF-2 significant (p<0.01)
Description: This procedure is based on a modification of the mouse angiogenesis model previously described^41. Two-three week old male or female SCID mice (Taconic, Germantown, N.Y.) were used as hosts for all implants. Primary HDMEC and HDMEC-T were harvested, washed twice and re-suspended in serum-free EGM-2 basal medium at the concentration of 1×10^5/μl. Ten μl of cells were mixed with 0.5 ml of Matrigel on ice and the mixture was implanted in the ventral midline thoracic tissue of each mouse by subcutaneous injection using a #25 needle. Up to three separate injections could be performed on a single mouse. For some experiments, recombinant human VEGF165 (2 μg/ml) (R&D systems, Minneapolis, Minn.) or bovine FGF-2 (150 ng/ml) (R&D systems, Minneapolis, Minn.) were added to the mixture. When tumor cells (HT1080 and 293, ATCC) or primary human dermal fibroblasts 38 were injected, the procedure remained the same except basal DMEM medium replaced EGM-2. 41. Passaniti, A. et al. A simple, quantitative method for assessing angiogenesis and antiangiogenic agents using reconstituted basement membrane, heparin, and fibroblast growth factor. Lab. Invest. 67, 519-528 (1992).
as §4, with “sectioned. H&E stained thin sections were prepared at Pan-insular Histopathology laboratory (Los Gatos, Calif.). For immunofluorescence, thin sections were deparaffinized and antigens retrieved in 10 mM citric acid (pH 6.0) by microwaving sections for 2×7 min.” for “sectioned.”
For digital analysis of eGFP fluorescence images we used a novel algorithm (Moss Filter™) to determine the total amount of vascularization in each implant section. […]

rTIMP-1: Tissue Inhibitor of Matrix metalloProteinases 1
blocking of MMP activities (MMP activities): partially blocked

TNFá
VCAM-1 expression (hTERT(+) HDMEC (TERT-1); TERT-1 (baseline 1.3%)): 41% | CD34 expression (hTERT(+) HDMEC (TERT-1); TERT-1 (baseline 19.5%)): 1.6% | ICAM-1 expression (hTERT(+) HDMEC (TERT-1); TERT-1 (baseline 30%)): > 99% | ICAM-1 expression (primary HDMEC (control); control primary cells): > 99% | VCAM-1 expression (primary HDMEC (control); control primary cells): 41% | CD34 expression (primary HDMEC (control); primary cells): 45%

CCCCCCCCCCCCCC(=O)O[C@@H]1[C@@H](C)[C@@]2(O)[C@@H](C=C(CO)C[C@]3(O)C(=O)C(C)=C[C@@H]23)[C@@H]2C(C)(C)[C@]12OC(C)=O [PMA, reference compound]
net MMP activity [1]: 10.1 units/min/ug total protein | effect on human microvessel formation in vivo (microvessel density, anti-human Type 4 collagen immuno-micromorphometry) [2]: angiostatic qualities

CS(=O)(=O)Nc1ccc([N+](=O)[O-])cc1OC1CCCCC1 [NS-398]
angiogenic web blockade (dose-response curve) [3]: angiogenic web blockade

FGF-2: bovine FGF-2 (R&D systems), pro-angiogenic factor
host vessel invasion of Matrigel implants [4]: marked host vessel invasion; also recorded: stimulated | host vessel invasion of Matrigel implants ([4]; listed as b-FGF): host microvasculature is readily apparent invading | effect on human microvessel formation in vivo (microvessel density, anti-human Type 4 collagen immuno-micromorphometry) [2]: greatest stimulatory effect | human vessel density (human type IV collagen micromorphometry) [5]: statistically increased human vessel density

COc1ccc2c(c1)c(CC(=O)O)c(C)n2C(=O)c1ccc(Cl)cc1 [indomethacin]
angiogenic web blockade (dose-response curve) [3]: angiogenic web blockade

c1cnc2c(c1)ccc1cccnc12 [1, 10 phenanthraline, reference compound]
blocking of MMP activities (MMP activities): completely blocked

VEGF
increased vessel density relative to controls ([5]; VEGF mixed with HDMEC-GT and Matrigel, two weeks, not statistically significant): 20-30% | human vessel density (human type IV collagen micromorphometry) [5]: increased vessel density
